From ChEMBL document CHEMBL6134931, “Lysine-Targeted Covalent Strategy Leading to the Discovery of Novel Potent PROTAC-Based PI3Kδ Degraders” (J Med Chem, 2025)

Experiments:
[1] = system: SU-DHL-6; assay: Antiproliferative activity against human SU-DHL-6 cells assessed as cell growth inhibition incubated for 72 hrs by MTT assay; type: functional
[2] = system: Pfeiffer; assay: Antiproliferative activity against human Pfeiffer cells assessed as cell growth inhibition incubated for 72 hrs by MTT assay; type: functional
[3] = system: SU-DHL-6; assay: Induction of apoptosis in human SU-DHL-6 cells assessed as viable cells at 1 uM incubated for 24 hrs by Annexin V-FITC/PI staining based flow cytometric analysis (reference value: 92.54 %); type: functional; details: read-out: Activity
[4] = system: SU-DHL-6; assay: Induction of apoptosis in human SU-DHL-6 cells assessed as early apoptotic cells at 1 uM incubated for 24 hrs by Annexin V-FITC/PI staining based flow cytometric analysis (reference value: 2.32 %); type: functional
[5] = system: SU-DHL-6; assay: Induction of apoptosis in human SU-DHL-6 cells assessed as late apoptotic cells at 1 uM incubated for 24 hrs by Annexin V-FITC/PI staining based flow cytometric analysis (reference value: 4.75 %); type: functional
[6] = system: SU-DHL-6; assay: Induction of apoptosis in human SU-DHL-6 cells assessed as necrotic cells at 1 uM incubated for 24 hrs by Annexin V-FITC/PI staining based flow cytometric analysis (reference value: 0.39 %); type: functional
[7] = system: SU-DHL-6; assay: Induction of apoptosis in human SU-DHL-6 cells assessed as viable cells at 10 uM incubated for 24 hrs by Annexin V-FITC/PI staining based flow cytometric analysis (reference value: 92.54 %); type: functional; details: read-out: Activity
[8] = system: SU-DHL-6; assay: Induction of apoptosis in human SU-DHL-6 cells assessed as early apoptotic cells at 10 uM incubated for 24 hrs by Annexin V-FITC/PI staining based flow cytometric analysis (reference value: 2.32 %); type: functional
[9] = system: SU-DHL-6; assay: Induction of apoptosis in human SU-DHL-6 cells assessed as late apoptotic cells at 10 uM incubated for 24 hrs by Annexin V-FITC/PI staining based flow cytometric analysis (reference value: 4.75 %); type: functional
[10] = system: SU-DHL-6; assay: Induction of apoptosis in human SU-DHL-6 cells assessed as necrotic cells at 10 uM incubated for 24 hrs by Annexin V-FITC/PI staining based flow cytometric analysis (reference value: 0.39 %); type: functional
[11] = system: SU-DHL-6; assay: Antitumor activity against human SU-DHL-6 cells xenografted in male nude mouse model assessed as tumor growth inhibition at 2 mg/kg, ip administered for 21 days relative to control; type: functional; details: SU-DHL-6, 504 h, time 21 day, read-out: TGI
[12] = biological target: T1, Phosphatidylinositol 4,5-bisphosphate 3-kinase catalytic subunit delta isoform (Homo sapiens) (UniProt O00329); details: dose 100.0 nM, time 90.0 min
T1 sequence (whole entry): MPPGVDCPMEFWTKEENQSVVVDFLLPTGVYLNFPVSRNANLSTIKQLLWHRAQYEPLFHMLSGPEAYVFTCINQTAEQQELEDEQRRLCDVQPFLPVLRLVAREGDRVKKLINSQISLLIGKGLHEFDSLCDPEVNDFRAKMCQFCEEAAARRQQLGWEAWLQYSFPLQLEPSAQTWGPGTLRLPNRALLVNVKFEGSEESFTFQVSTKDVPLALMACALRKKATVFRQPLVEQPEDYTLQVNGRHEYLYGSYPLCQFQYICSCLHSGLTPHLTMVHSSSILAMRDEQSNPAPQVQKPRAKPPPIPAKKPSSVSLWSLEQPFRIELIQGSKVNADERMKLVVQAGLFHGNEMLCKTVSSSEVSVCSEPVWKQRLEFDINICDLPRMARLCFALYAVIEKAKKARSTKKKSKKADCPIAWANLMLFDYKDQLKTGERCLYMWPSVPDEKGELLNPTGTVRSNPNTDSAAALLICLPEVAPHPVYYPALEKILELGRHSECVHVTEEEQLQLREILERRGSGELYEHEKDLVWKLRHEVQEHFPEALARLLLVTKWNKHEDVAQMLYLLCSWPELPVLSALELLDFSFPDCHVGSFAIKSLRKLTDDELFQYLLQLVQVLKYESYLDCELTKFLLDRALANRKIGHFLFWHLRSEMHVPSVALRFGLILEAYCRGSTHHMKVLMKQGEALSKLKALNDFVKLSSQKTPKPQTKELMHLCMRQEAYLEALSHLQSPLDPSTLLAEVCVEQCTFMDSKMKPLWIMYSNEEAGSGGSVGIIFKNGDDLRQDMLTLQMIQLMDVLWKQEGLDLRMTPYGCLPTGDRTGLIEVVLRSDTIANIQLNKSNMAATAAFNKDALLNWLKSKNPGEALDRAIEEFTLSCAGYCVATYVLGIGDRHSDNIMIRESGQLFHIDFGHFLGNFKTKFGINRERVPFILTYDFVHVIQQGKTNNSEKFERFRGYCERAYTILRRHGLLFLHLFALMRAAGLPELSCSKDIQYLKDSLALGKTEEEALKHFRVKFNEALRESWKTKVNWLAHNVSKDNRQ

[13] = biological target: Protein cereblon/Phosphatidylinositol 4,5-bisphosphate 3-kinase catalytic subunit alpha isoform (Homo sapiens, UniProt P42336+Q96SW2); assay: PROTAC activity at CRBN/p110alpha in human MDA-MB-231 cells assessed as induction of p110alpha degradation; type: cell-based
[14] = system: MDA-MB-231; assay: Antiproliferative activity against human MDA-MB-231 cells; type: functional, cell-based
[15] = biological target: Protein cereblon/Phosphatidylinositol 4,5-bisphosphate 3-kinase catalytic subunit gamma isoform (Homo sapiens, UniProt P48736+Q96SW2); assay: PROTAC activity at CRBN/p110gamma (unknown origin) in Acute myeloid leukemic cell; type: cell-based
Sequence of Protein cereblon/Phosphatidylinositol 4,5-bisphosphate 3-kinase catalytic subunit gamma isoform (P48736 whole entry, canonical isoform): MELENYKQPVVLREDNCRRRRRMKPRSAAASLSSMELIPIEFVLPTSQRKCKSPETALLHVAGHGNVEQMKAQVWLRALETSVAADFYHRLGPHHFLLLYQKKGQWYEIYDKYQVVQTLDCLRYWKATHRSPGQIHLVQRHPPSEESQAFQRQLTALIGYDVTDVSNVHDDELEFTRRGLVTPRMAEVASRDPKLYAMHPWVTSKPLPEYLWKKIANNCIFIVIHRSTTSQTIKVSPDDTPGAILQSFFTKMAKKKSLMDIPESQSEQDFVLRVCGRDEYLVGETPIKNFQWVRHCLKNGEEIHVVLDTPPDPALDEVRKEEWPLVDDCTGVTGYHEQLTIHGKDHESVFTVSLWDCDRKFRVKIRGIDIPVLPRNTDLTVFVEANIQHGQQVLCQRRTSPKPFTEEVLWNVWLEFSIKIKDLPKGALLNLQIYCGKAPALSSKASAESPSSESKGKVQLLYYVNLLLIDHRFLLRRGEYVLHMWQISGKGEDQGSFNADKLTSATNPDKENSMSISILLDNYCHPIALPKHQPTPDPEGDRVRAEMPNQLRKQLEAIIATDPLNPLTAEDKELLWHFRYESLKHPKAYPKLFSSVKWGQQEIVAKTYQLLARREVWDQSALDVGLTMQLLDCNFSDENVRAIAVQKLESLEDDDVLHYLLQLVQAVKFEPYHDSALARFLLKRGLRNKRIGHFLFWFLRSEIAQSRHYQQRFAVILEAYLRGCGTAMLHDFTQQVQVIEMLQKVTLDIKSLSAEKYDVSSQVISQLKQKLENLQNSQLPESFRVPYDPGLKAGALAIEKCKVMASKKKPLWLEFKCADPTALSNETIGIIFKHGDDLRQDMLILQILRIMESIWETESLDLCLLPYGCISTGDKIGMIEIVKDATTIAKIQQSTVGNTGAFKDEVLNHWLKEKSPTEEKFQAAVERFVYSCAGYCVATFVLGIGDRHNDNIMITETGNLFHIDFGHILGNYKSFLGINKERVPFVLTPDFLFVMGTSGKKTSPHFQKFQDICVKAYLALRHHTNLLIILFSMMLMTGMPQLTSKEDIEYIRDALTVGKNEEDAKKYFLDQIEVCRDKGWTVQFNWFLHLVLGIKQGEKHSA
Sequence of Protein cereblon/Phosphatidylinositol 4,5-bisphosphate 3-kinase catalytic subunit gamma isoform (Q96SW2 whole entry, canonical isoform): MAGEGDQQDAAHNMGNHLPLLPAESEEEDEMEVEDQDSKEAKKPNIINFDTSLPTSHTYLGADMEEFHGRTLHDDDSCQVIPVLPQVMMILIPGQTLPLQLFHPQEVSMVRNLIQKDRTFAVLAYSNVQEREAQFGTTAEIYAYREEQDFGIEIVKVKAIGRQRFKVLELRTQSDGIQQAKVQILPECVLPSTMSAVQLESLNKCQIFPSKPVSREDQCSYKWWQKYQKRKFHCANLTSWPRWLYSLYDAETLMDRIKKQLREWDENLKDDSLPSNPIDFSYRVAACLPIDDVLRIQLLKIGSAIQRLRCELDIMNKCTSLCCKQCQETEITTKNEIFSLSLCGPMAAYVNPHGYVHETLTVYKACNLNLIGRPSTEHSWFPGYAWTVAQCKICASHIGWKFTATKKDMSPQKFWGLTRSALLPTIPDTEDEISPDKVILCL

Sequence of Protein cereblon/Phosphatidylinositol 4,5-bisphosphate 3-kinase catalytic subunit alpha isoform (P42336 whole entry, canonical isoform): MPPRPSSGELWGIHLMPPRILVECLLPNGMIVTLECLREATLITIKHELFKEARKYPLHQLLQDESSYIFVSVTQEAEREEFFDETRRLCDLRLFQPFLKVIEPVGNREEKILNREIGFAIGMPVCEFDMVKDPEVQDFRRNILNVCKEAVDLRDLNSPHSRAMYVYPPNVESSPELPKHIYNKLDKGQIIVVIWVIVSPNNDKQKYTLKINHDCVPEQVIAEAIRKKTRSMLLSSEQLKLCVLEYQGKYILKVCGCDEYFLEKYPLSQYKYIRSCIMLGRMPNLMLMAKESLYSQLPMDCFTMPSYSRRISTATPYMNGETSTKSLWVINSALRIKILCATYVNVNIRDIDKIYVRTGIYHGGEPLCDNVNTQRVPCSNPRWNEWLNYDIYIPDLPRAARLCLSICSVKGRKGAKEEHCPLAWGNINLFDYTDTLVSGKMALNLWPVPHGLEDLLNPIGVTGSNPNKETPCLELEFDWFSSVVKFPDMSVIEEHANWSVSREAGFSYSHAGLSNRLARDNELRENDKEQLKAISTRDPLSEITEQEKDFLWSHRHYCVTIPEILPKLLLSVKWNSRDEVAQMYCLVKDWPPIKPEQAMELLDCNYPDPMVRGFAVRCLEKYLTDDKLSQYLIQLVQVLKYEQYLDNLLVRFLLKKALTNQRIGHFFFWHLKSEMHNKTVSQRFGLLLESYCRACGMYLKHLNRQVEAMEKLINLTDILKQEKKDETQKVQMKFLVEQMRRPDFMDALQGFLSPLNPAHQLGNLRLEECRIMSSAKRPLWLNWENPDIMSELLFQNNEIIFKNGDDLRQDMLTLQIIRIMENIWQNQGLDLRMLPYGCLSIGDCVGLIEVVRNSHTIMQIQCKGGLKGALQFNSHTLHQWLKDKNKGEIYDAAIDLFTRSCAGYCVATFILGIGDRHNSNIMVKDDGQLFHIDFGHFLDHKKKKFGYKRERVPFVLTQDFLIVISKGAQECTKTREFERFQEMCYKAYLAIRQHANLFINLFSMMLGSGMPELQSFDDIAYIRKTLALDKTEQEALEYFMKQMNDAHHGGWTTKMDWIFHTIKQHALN
Sequence of Protein cereblon/Phosphatidylinositol 4,5-bisphosphate 3-kinase catalytic subunit alpha isoform (Q96SW2 whole entry, canonical isoform): as the sequence (Q96SW2 whole entry, canonical isoform) above

## CC[C@H](Nc1ncnc2[nH]cnc12)c1nc2cccc(F)c2c(=O)n1-c1ccccc1 [IDELALISIB]
[1]
  GI50: 250 nM
[2]
  GI50: 8550 nM
[3]
  viability at 1 µM: 91.7%
[4]
  Activity: 3.25%
[5]
  Activity: 4.89%
[6]
  Activity: 0.18%
[7]
  viability at 10 µM: 80.1%
[8]
  Activity: 8.2%
[9]
  Activity: 11.55%
[10]
  Activity: 0.13%
[11]
  inhibition in vivo at 2 mg/kg: 36.3%
[12]
  inhibition: 81%

## COc1c(OCCOCCOCCCCCc2cn(CCCCCNc3cccc4c3C(=O)N(C3CCC(=O)NC3=O)C4=O)nn2)ccc2c1N=C(NC(=O)c1cnc(N)nc1)N1CCN=C21 (stereo not given)
[13]
  DC50: 5 nM
[14]
  IC50: 86.8 nM

## Cc1cc(-c2sc(NC(=O)CCCC(=O)NCCCCCCCC(=O)Nc3cccc4c3C(=O)N(C3CCC(=O)NC3=O)C4=O)nc2C)cc2c1C(=O)N([C@H](C)C1CC1)C2 (stereo not given in full)
[15]
  DC50: > 100 nM
